In one experiment the test system is WT hepatocytes. In words: Mitochondrial oxygen consumption rate and extracellular acidification rate (Seahorse). The format is cell-based, murine. As to the method: CPACC treatment enhances adipose browning and lowers whole body weight. Given the potent mMg^2+ uptake inhibiting properties and low toxicity of CPACC, we hypothesized that CPACC could mimic Mrs2^−/− cellular phenotype. WT hepatocytes isolated from over 12 months old mice were treated with 50 μM CPACC for 48 hours. Control and CPACC treated hepatocytes were stained with BODIPY and TMRE for intracellular tracing using confocal imaging. […] Next it was determined if CPACC treatment affects the mitochondrial oxygen consumption rate. Freshly isolated WT hepatocytes were treated with 5-25 μM concentrations of CPACC for 16 hours before measurement of oxygen consumption rate. […] Since it was observed an enhancement of basal OCR in CPACC treated hepatocytes, the extracellular acidification rate was measured in control and CPACC treated hepatocytes and found it to be higher in the CPACC condition indicating higher glycolytic activity (FIG. 11G). […]
Mitochondrial oxygen consumption rate. […] Oxygen consumption rate (OCR) was measured at 37° C. in an XF96 extracellular flux analyzer (Seahorse Bioscience, Agilent) calibrated using Seahorse XF Calibrant solution (Seahorse Bioscience, Agilent) in a CO2-free incubator overnight. […] Data was collected using Agilent Seahorse Wave 2.6.1 Desktop software and analyzed using GraphPad Prism version 8 (Irrinki et al., 2011; Tomar et al., 2016).

In the next experiment the target is T1, human MRS2 (Homo sapiens, UniProt Q9HD23).
T1 construct: 6xHis (N, cleaved yes); made in house; host or cells: BL21 (DE3) codon+ Escherichia coli, pET-28a
T1 sequence (Q9HD23 58-443): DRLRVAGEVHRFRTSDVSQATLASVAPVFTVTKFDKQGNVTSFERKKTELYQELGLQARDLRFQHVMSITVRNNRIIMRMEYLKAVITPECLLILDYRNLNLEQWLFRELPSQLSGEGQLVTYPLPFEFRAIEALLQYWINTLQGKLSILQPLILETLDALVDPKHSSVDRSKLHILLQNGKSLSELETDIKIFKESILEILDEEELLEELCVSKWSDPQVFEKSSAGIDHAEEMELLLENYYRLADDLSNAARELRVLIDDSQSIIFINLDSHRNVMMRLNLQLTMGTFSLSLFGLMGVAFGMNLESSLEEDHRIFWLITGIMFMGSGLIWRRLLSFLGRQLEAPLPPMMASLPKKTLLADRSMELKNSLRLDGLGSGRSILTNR
In words: Dynamic light scattering of purified full-length MRS2 assembly. As to conditions: 0.5 mM. The format is binding. As to the method:
Next, CPACC was assessed to determine if it directly affects the assembly of purified human MRS2 using dynamic light scattering (DLS). DLS has been used to determine whether the complex stability of proteins/channels is altered by molecular chaperones or drugs (Kitamura et al., 2006). Because of the high sensitivity of DLS to changes in complex sizes, full-length Mrs2 assembly was evaluated in the presence Ca^2+ (5 mM), Mg^2+ (5 mM), Co^2+ (5 mM) or the Mrs2 blocker CPACC (0.5 mM) (FIG. 10K, FIG. 10L, FIG. 10M, FIG. 10N, FIG. 10O). […] A concentration-response assessment confirmed robust decreases in hydrodynamic radii at all CPACC concentrations tested and as low as 10 μM (FIG. 10O).
MRS2 cloning, expression, and purification. The full length human MRS2 (NCBI accession NP_065713.1), identified as MRS258-443 (i.e. residues 58-443) and excluding the mitochondrial targeting sequence, was cloned into pET-28a using Ndel and Xhol restriction sites. […]
Dynamic light scattering (DIS). […] The sample was equilibrated for 5 min at 20° C. before 10 autocorrelation function acquisitions of 5 s each were recorded and averaged. […] The dependence of hydrodynamic size on CPACC concentration was determined using ≈0.5 mg/mL protein supplemented with 0.01 mM, 0.05 mM, 0.1 mM, 0.5 mM or 0.75 mM CPACC, using a similar experimental setup as described above and cumulants analysis.

On to `[NH2][Co]([NH2])([NH2])([NH2])([NH2])[Cl]` [CPACC, chloropentaammine cobalt (III) chloride], for which, in the experiment on WT hepatocytes (5-25 μM, 16 hours), the “maximal OCR” value is recorded as “without a significant effect”. Besides, the extracellular acidification rate entry with WT hepatocytes (treated versus control hepatocytes) is recorded as “higher”. Further, on human MRS2, the “full-length MRS2 complex sizes (DLS)” value is recorded as “potently decreased”.
